Reference: ChEMBL document CHEMBL1156716, “Selenium containing heterocycles: synthesis, anti-inflammatory, analgesic and anti-microbial activities of some new 4-cyanopyridazine-3(2H)selenone derivatives” (Eur J Med Chem, 2008)

What was measured:
Rattus norvegicus [1] = assay: Antiinflammatory activity in albino rat assessed as inhibition of carrageenan-induced paw edema at 10 mg/kg, ip after 0.5 hrs; type: functional; conditions: route intraperitoneal
Mus musculus [2] = assay: Analgesic activity in albino mouse assessed as effect on […] at 10 mg/kg, ip after 1 hrs by hot plate test; type: functional; conditions: route intraperitoneal
Rattus norvegicus [3] = assay: Antiinflammatory activity in albino rat assessed as inhibition of carrageenan-induced paw edema at 10 mg/kg, ip after 5 hrs; type: functional; conditions: route intraperitoneal
Rattus norvegicus [4] = assay: Antiinflammatory activity in albino rat assessed as inhibition of carrageenan-induced paw edema at 10 mg/kg, ip after 3 hrs; type: functional; conditions: route intraperitoneal
Mus musculus [5] = assay: Analgesic activity in albino mouse assessed as effect on […] at 10 mg/kg, ip after 5 hrs by hot plate test; type: functional; conditions: route intraperitoneal
Mus musculus [6] = assay: Analgesic activity in albino mouse assessed as effect on […] at 10 mg/kg, ip after 0.5 hrs by hot plate test; type: functional; conditions: route intraperitoneal
Rattus norvegicus [7] = assay: Antiinflammatory activity in albino rat assessed as inhibition of carrageenan-induced paw edema at 10 mg/kg, ip after 1 hrs; type: functional; conditions: route intraperitoneal
Mus musculus [8] = assay: Analgesic activity in albino mouse assessed as effect on […] at 10 mg/kg, ip after 4 hrs by hot plate test; type: functional; conditions: route intraperitoneal
Rattus norvegicus [9] = assay: Antiinflammatory activity in albino rat assessed as inhibition of carrageenan-induced paw edema at 10 mg/kg, ip after 4 hrs; type: functional; conditions: route intraperitoneal
Mus musculus [10] = assay: Analgesic activity in albino mouse assessed as effect on […] at 10 mg/kg, ip after 3 hrs by hot plate test; type: functional; conditions: route intraperitoneal
Rattus norvegicus [11] = assay: Antiinflammatory activity in albino rat assessed as inhibition of carrageenan-induced paw edema at 10 mg/kg, ip after 2 hrs; type: functional; conditions: route intraperitoneal
Mus musculus [12] = assay: Analgesic activity in albino mouse assessed as effect on […] at 10 mg/kg, ip after 2 hrs by hot plate test; type: functional; conditions: route intraperitoneal
Mus musculus [13] = assay: Acute toxicity in ip dosed albino mouse upto 250 mg/kg after 72 hrs; type: organism-based; set-up: dose 250 mg/kg, route intraperitoneal; conditions: in vivo

Compound | inhibition in vivo at 10 mg/kg (Rattus norvegicus [1]) [%] | Activity (Mus musculus [2]) [%] | inhibition in vivo at 10 mg/kg (Rattus norvegicus [3]) [%] | inhibition in vivo at 10 mg/kg (Rattus norvegicus [4]) [%] | Activity (Mus musculus [5]) [%] | Activity (Mus musculus [6]) [%] | inhibition in vivo at 10 mg/kg (Rattus norvegicus [7]) [%] | Activity (Mus musculus [8]) [%] | inhibition in vivo at 10 mg/kg (Rattus norvegicus [9]) [%] | Activity (Mus musculus [10]) [%] | inhibition in vivo at 10 mg/kg (Rattus norvegicus [11]) [%] | Activity (Mus musculus [12]) [%] | Activity (Mus musculus [13])
N#CC1=C(N)C2=C(c3ccccc3)C(c3ccccc3)=NNC2[Se]1 (centres undefined) | 8.8 | 77.9 | 44.4 | 29.4 | 65.3 | 67.9 | 9.9 | 75.5 | 36.1 | 79.8 | 29.4 | 75.5 | –
NC1=C(C(=O)c2ccccc2)[Se]C2NN=C(c3ccccc3)C(c3ccccc3)=C12 (centres undefined) | 9 | 27.1 | 38.8 | 29.4 | 24.2 | 25.2 | 9 | 31.9 | 35.5 | 36.5 | 26.4 | 30.6 | –
O=C1NC2(CCCCC2)NC2=C1[Se]C1NN=C(c3ccccc3)C(c3ccccc3)=C21 (centres undefined) | 8.7 | – | 38.8 | 23.5 | – | – | 9.9 | – | 30.5 | – | 23.5 | – | –
N#Cc1c(-c2ccccc2)c(-c2ccccc2)n[nH]c1=[Se] | 8.8 | – | 30.5 | 23.5 | – | – | 17.2 | – | 30.5 | – | 20.5 | – | –
NC(=O)C1=C(N)C2=C(c3ccccc3)C(c3ccccc3)=NNC2[Se]1 (centres undefined) | 8.7 | 97.8 | 50 | 44.4 | 83.4 | 90.3 | 14.7 | 90.5 | 47.2 | 98.4 | 26.4 | 99.4 | Non-toxic
CCOC(=O)C1=C(N)C2=C(c3ccccc3)C(c3ccccc3)=NNC2[Se]1 (centres undefined) | 8.8 | 42.8 | 44.4 | 35.2 | 33.4 | 21.6 | 17.2 | 39.6 | 41.6 | 41.3 | 23.5 | 39.8 | –
CC(=O)C1=C(N)C2=C(c3ccccc3)C(c3ccccc3)=NNC2[Se]1 (centres undefined) | 8.8 | – | 33.5 | 20.5 | – | – | 17.2 | – | 28.5 | – | 20.5 | – | –
CC(=O)Oc1ccccc1C(=O)O [ASPIRIN] | – | 58.9 | – | – | 30.01 | 36.2 | – | 39.2 | – | 45.6 | – | 50.5 | –
COc1ccc2c(c1)c(CC(=O)O)c(C)n2C(=O)c1ccc(Cl)cc1 [INDOMETHACIN] | 11.7 | – | 57.5 | 44.1 | – | – | 20.5 | – | 52.7 | – | 32.3 | – | –
